Source: ChEMBL document CHEMBL1201862, “PubChem BioAssay data set” (2004)
Active and inactive are the calls of the source.

Key:
[1] = target: 5-hydroxytryptamine receptor 1A (Homo sapiens, UniProt P08908); format: functional
[2] = target: Mitogen-activated protein kinase 10 (Homo sapiens, UniProt P53779); experiment: Dose response biochemical screening assay for inhibitors of c-Jun N-Terminal Kinase 3 (JNK3). [Related pubchem assays: 746 ]
Vero [3] = experiment: cells; format: functional, Chlorocebus sabaeus; conditions: Chlorocebus sabaeus, Vero
[4] = viability loss in HEK293 cells – cell-based, plate reader, cherry-picked samples, cytotoxicity control, dose response (AID 743446); format: functional
[5] = DRD fibroblast viability loss – cell-based, non-viral oncogenic, luminescence, dose response (AID 1934); format: functional; conditions: Homo sapiens
BJ [6] = experiment: cells; format: functional, cell-based; conditions: Homo sapiens
[7] = target: E3 ubiquitin-protein ligase Mdm2 (Homo sapiens, UniProt Q00987); experiment: MDM2-luc reporter signal enhancers, multi-concentration potency testing, MDM2 ubiquitin-protein ligase inhibitor program, whole-cell format, luminescence detection, 384-well microplate (AID 1394); format: functional;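 note: MDM2 E3 inhibitors raise luminescence so EC50 is for signal enhancement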
Chain of E3 ubiquitin-protein ligase Mdm2 (Q00987 whole entry): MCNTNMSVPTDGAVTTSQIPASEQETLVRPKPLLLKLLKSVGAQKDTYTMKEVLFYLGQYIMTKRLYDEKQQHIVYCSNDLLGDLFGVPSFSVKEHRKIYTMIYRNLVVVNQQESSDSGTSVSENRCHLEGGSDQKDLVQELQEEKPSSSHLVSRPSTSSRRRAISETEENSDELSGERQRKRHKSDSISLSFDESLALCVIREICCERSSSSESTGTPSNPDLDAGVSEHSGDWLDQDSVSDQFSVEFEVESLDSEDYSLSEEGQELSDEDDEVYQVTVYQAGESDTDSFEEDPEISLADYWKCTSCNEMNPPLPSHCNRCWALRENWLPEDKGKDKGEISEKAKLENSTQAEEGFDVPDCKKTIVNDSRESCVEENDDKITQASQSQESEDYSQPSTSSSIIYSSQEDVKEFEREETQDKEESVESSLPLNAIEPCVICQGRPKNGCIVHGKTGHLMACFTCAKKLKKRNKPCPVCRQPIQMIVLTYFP

[8] = target: T1, COUP transcription factor 2 (Homo sapiens, UniProt P24468); experiment: Luminescence-based cell-based high throughput dose response assay to identify inhibitors of COUP-TFII (NR2F2).; format: functional;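 note: HEK293 cells transiently cotransfected with COUP-TFII expression vector and reporter; luciferase reporter luminescence driven by COUP-TFII from the pX2-168 reporter plasmid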
T1 sequence (P24468 whole entry): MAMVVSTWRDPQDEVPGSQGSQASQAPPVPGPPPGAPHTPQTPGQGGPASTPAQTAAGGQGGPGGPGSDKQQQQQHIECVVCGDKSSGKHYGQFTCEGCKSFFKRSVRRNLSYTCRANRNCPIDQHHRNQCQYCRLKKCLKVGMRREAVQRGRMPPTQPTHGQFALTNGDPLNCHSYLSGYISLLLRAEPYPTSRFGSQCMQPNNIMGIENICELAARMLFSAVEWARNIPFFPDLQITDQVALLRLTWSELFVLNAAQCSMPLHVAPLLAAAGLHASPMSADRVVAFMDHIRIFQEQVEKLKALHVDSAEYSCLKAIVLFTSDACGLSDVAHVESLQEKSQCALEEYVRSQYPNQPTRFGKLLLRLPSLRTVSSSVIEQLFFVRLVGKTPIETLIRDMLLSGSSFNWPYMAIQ

[9] = blockade of melanocortin 4 receptor signaling – cell-based, plate reader, cherry pick, counter-screen for LGR2 antagonist project, dose response (AID 743444); format: functional;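 note: transfected HEK 293 cells stimulated with alpha-MSH peptide; potency of inhibitors of the alpha-MSH evoked signal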
BJ [10] = experiment: BJ-TERT fibroblast viability loss – cell-based, RAS-independent, luminescence, dose response (AID 1933); format: functional; conditions: Homo sapiens
[11] = blockers of bursicon-stimulated LGR2 cAMP reporter – cell-based, HEK293, CRE-luciferase reporter, cherry pick, set 2, dose response (AID 743343); format: functional;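 note: transfected cells were stimulated with diluted bursicon conditioned medium after compound addition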
BJ [12] = experiment: BJ-TERT-LT-ST fibroblast viability loss – cell-based, RAS-independent, luminescence, dose response (AID 1935); format: functional; conditions: Homo sapiens;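 note: BJ fibroblasts immortalized with TERT plus LT and ST oncogenes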
[13] = reduction of Shn3 3'UTR-driven luciferase in osteoblasts – cell-based, Clone20 osteoblasts, firefly luciferase, cherry-picked, dose response (AID 624132); format: functional;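 note: firefly luciferase luminescence from reporter carrying the Shn3 3'UTR in osteoblasts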
[14] = non-specific 3'UTR reporter inhibition in Clone20-Shn3RL – cell-based, Renilla luciferase, cherry-picked, counter-screen for Shn3 inhibitor project, dose response (AID 624133); format: functional
Vero [15] = experiment: cells; format: functional, cell-based; conditions: Chlorocebus sabaeus
[16] = loss of viability in HepG2 cells – cell-based, CellTiter-Glo, cherry-picked, cytotoxicity control for Shn3 inhibitor project, dose response (AID 624134); format: functional
[17] = toxicity toward HepG2 liver cells – cell-based, plate reader, cherry-pick, antagonist series, cytotoxicity control, dose response (AID 743416); format: functional
[18] = A549 cell cytotoxicity, dose response, cytotoxicity control, plate reader, cherry-pick, antagonist series (AID 743412); format: functional, cell-based
[19] = viability loss in human Jurkat cells – cell-based, luminescence, cytotoxicity control for P. falciparum gametocyte viability project, dose response (AID 1117277); format: functional;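 note: potency reflects loss of cellular ATP meaning fewer viable cells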
[20] = viability inhibitors of stage V gametocytes – luminescence, dose response (AID 1117278); format: functional, cell-based;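 note: gametocytes exposed to compound for 24 hours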
[21] = target: Ubiquitin carboxyl-terminal hydrolase BAP1 (Homo sapiens, UniProt Q92560); experiment: inhibition of BAP1 ubiquitin hydrolase activity – biochemical, dose response (AID 714); format: functional
[22] = target: T2, Tyrosine-protein phosphatase non-receptor type 7 (Homo sapiens, UniProt P35236); experiment: HePTP tyrosine phosphatase activity blockers – biochemical, absorbance, leukemia target, primary screen (AID 521); format: functional
T2 sequence (P35236 whole entry): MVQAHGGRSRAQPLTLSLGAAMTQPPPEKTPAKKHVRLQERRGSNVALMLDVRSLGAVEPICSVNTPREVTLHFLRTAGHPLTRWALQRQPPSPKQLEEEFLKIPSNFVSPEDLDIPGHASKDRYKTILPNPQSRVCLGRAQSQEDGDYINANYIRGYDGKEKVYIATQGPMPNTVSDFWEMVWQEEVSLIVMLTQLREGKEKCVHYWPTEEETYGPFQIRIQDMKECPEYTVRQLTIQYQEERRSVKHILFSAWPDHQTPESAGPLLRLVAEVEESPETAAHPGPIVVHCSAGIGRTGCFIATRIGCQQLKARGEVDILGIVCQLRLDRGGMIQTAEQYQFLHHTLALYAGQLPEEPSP

[23] = fluconazole-exposed Candida albicans growth modulators – fluorescence, retest, confirmation (AID 2467); format: functional, cell-based
[24] = target: T3, Heat shock factor protein 1 (Mus musculus, UniProt P38532); experiment: decrease of HSF1-responsive luciferase luminescence – cell-based, NIH3T3, dose retest, confirmation (AID 2382); format: functional;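 note: NIH3T3 fibroblasts with HSF1-driven luciferase reporter stressed by proteasome inhibitor MG132; luminescence from HSF1-driven luciferase expression after 8 hours of MG132 stress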
T3 sequence (P38532 whole entry): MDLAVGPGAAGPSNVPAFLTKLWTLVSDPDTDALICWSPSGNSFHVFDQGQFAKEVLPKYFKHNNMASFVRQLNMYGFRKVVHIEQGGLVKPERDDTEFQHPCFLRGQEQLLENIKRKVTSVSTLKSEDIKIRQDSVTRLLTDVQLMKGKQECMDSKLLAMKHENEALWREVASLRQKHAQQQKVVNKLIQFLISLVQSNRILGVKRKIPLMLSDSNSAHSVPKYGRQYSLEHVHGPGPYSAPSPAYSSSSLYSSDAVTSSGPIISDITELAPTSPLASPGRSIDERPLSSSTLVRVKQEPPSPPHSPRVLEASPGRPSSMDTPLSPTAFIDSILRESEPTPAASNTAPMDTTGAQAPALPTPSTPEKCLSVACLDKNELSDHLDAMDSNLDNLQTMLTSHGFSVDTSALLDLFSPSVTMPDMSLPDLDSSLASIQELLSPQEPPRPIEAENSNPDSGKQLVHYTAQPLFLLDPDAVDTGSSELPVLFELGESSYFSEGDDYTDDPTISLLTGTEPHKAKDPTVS

[25] = NIH-3T3 fibroblast cytotoxicity, dose response, cytotoxicity control, cell-based, fluorescence, Alamar Blue, secondary assay (AID 2327); format: functional;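 note: NIH-3T3 mouse fibroblasts cultured with fluconazole at 8 µg/mL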
Ephrin type-A receptor 4 = Ephrin type-A receptor 4 (Mus musculus, UniProt Q03137); experiment: EphA4 ligand-binding antagonists – biochemical, colorimetric, mouse EphA4, primary screen (AID 689); format: functional
[26] = viability of uninfected HEp-2 cells – cell-based, HTS, cytotoxicity control for RSV inhibitor project, dose response (AID 2410); format: functional; conditions: human respiratory syncytial virus
[27] = rise of 2N DNA cells, HeLa – IC50, dose response (AID 1117349); format: functional, cell-based
[28] = Reduced DLD-1 viability, concentration-response, CellTiter-Glo luminescence (AID 1117352); format: functional
[29] = cytotoxicity toward HCT116 cells – cell-based, CellTiter-Glo luminescence, IC50, dose response (AID 1117332); format: functional; conditions: HCT-116
[30] = SNU-C1 cell viability reduction, dose response, CellTiter-Glo luminescence (AID 1117323); format: functional, cell-based
[31] = cytotoxicity toward HT-29 cells – cell-based, CellTiter-Glo luminescence, IC50, dose response (AID 1117330); format: functional
[32] = CellTiter-Glo luminescence survival assay, SW480 colon tumor line, concentration-response curve, half-maximal inhibitory concentration (AID 1117338); format: functional
[33] = HCT116 cell viability decrease, GSK3B pretreatment – CellTiter-Glo, IC50, dose response (AID 1117339); format: functional; conditions: HCT-116
[34] = growth inhibition of yeast DHODH-expressing 3D7 parasites – SYBR Green, dry powder samples, dose response (AID 1159570); format: functional, cell-based;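 note: parasite growth measured after 72 hours of compound exposure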
[35] = Dd2 malaria parasite growth inhibition potency – SYBR Green, dry powder samples, dose response (AID 1159566); format: functional, cell-based;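 note: potency for growth inhibition with lower SYBR green DNA signal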
[36] = toxicity to human HepG2 hepatoma cells – cell-based, plate reader, dry powder samples, cytotoxicity control, dose response (AID 1159569); format: functional;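 note: inhibitor potency with signal falling toward the positive control level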
[37] = Plasmodium falciparum Dd2 Sybr green parasite growth Measured in Cell-Based and Microorganism Combination System Using Plate Reader - 2153-01_Inhibitor_Dose_DryPowder_Activity_Set3.; format: functional
[38] = toxicity to human hepatoma HepG2 cells – cell-based, cherry-picked samples, cytotoxicity control, dose response (AID 1159577); format: functional
[39] = growth inhibition of PfATP4-mutant resistant parasites – NITD609-resistant line, SYBR Green, dry powder, dose response (AID 1159571); format: functional, cell-based;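 note: parasites synchronized at ring stage by sorbitol before testing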
[40] = Dd2 parasite growth inhibition in erythrocytes – SYBR Green, dry powder samples, set 9, dose response (AID 1159568); format: functional, cell-based
[41] = P. falciparum Dd2 growth inhibitors, dose response, SYBR Green, cherry-picked samples (AID 1159567); format: functional, cell-based
[42] = rise of 4N DNA cells, HeLa – IC50, dose response (AID 1117351); format: functional, cell-based
cells = format: functional, cell-based; conditions: INS-1E
[43] = IC50 of insulin release inhibition, rat insulinoma INS-1E line, 5 mM glucose, cell-based (AID 1117331); format: functional
[44] = target: T4, Voltage-gated N-type calcium channel alpha-1B subunit/Amyloid beta A4 precursor protein-binding family A member 1 (Homo sapiens, UniProt Q00975+Q02410); format: protein assay
T4 sequence (Q00975 whole entry): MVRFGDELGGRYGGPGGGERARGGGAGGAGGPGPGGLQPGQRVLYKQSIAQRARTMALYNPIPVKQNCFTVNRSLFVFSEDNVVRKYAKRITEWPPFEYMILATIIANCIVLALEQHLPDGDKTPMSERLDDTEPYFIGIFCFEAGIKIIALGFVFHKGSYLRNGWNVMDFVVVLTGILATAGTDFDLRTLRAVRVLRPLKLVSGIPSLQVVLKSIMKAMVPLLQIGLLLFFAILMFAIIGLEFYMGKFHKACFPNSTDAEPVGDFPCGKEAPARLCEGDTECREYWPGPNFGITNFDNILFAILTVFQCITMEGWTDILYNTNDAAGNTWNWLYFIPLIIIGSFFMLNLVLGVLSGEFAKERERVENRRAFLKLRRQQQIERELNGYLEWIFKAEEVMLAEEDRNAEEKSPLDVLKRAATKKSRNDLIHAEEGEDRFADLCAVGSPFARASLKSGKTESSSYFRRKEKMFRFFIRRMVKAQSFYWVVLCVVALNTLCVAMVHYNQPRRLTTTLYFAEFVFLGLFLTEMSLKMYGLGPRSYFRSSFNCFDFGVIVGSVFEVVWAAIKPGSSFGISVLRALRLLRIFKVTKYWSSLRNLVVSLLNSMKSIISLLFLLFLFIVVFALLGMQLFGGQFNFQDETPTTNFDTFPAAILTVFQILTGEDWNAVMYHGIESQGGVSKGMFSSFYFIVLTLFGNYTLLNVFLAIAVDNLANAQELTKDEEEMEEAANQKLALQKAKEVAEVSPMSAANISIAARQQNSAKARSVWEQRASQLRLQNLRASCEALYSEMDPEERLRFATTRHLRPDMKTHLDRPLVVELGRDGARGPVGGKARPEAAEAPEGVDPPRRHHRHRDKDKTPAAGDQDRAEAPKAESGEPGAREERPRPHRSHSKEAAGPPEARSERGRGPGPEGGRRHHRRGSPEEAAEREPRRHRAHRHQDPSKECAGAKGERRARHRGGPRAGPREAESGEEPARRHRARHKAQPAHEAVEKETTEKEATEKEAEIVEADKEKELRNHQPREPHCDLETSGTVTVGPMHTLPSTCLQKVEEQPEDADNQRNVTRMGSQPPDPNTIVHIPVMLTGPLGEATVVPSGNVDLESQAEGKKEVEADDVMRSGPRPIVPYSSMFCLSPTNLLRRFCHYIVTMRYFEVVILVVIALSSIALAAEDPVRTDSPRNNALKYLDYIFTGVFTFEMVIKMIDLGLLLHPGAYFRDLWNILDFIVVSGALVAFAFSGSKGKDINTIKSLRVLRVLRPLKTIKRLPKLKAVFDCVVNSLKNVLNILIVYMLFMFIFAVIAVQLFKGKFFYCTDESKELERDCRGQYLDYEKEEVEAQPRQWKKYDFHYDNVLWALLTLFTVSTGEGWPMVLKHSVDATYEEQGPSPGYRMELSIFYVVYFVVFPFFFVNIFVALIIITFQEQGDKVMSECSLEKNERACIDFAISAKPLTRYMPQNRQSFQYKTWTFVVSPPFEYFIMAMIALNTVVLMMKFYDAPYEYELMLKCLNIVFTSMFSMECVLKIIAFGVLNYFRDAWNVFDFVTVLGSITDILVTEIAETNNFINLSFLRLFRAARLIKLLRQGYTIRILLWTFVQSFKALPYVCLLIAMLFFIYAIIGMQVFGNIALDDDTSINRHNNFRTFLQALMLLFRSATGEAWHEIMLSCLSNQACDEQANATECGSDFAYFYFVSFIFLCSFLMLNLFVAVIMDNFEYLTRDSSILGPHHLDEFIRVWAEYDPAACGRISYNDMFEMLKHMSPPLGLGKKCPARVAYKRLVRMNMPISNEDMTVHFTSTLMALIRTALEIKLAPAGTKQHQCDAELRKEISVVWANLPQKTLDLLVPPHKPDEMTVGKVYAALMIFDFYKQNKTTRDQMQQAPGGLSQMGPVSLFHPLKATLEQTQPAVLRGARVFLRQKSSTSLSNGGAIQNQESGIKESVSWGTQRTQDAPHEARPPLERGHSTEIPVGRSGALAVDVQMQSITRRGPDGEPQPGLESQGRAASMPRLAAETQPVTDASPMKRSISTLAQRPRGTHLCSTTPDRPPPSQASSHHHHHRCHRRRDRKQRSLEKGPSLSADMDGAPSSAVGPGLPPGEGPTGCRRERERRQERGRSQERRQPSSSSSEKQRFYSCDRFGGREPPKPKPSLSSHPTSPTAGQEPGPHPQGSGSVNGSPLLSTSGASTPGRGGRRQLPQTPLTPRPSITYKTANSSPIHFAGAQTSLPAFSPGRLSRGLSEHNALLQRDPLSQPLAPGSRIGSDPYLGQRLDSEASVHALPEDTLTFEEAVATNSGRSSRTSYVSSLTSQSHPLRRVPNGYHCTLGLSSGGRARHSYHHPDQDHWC
T4 sequence (Q02410 whole entry): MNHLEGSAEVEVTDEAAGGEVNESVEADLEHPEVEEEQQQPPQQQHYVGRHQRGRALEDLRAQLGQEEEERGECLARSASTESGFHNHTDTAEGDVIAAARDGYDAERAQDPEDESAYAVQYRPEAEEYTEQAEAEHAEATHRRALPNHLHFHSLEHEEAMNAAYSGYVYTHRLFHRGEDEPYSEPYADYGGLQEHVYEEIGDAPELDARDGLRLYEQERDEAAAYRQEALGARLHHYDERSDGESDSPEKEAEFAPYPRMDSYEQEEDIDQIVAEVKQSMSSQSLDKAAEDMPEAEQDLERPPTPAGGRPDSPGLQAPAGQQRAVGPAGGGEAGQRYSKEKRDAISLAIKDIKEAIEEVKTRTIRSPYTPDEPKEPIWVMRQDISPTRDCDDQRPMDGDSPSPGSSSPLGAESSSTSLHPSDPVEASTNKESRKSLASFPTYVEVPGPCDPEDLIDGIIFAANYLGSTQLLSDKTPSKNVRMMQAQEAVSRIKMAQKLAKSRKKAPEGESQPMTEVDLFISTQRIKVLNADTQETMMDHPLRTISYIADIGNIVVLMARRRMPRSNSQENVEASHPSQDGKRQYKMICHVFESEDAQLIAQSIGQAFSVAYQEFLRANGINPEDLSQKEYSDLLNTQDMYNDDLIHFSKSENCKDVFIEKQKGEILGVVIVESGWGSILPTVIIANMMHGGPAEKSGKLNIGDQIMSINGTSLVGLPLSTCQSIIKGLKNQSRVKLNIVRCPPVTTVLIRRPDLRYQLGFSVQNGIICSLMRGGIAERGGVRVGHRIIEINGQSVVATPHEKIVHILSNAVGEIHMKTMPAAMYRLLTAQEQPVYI

[45] = target: T4, Voltage-gated N-type calcium channel alpha-1B subunit/Amyloid beta A4 precursor protein-binding family A member 1; format: protein assay; remark: listed apart in the source
[46] = target: T5, Carboxy-terminal domain RNA polymerase II polypeptide A small phosphatase 1 (Homo sapiens, UniProt Q9GZU7); experiment: CTDSP1 inhibitors, concentration-response, biochemical, absorbance readout, ultra-high-throughput screen actives (AID 540297); format: functional
T5 sequence (Q9GZU7 whole entry): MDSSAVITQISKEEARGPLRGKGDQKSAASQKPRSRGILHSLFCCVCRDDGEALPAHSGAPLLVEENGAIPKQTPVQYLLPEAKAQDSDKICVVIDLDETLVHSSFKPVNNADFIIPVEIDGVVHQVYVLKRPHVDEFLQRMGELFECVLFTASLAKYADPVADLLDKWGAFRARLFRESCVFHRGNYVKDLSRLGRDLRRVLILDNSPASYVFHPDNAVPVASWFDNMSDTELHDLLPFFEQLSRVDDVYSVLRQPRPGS

Protein Tat = Protein Tat (Human immunodeficiency virus type 1 group M subtype B (isolate HXB2)(HIV-1), UniProt P04608); format: functional;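 note: tat binding to TAR RNA read out by fluorescence polarization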
Chain of Protein Tat (P04608 whole entry): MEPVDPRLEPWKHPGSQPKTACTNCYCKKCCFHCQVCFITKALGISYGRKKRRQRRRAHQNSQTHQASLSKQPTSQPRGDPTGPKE

Chain of 5-hydroxytryptamine receptor 1A (P08908 whole entry): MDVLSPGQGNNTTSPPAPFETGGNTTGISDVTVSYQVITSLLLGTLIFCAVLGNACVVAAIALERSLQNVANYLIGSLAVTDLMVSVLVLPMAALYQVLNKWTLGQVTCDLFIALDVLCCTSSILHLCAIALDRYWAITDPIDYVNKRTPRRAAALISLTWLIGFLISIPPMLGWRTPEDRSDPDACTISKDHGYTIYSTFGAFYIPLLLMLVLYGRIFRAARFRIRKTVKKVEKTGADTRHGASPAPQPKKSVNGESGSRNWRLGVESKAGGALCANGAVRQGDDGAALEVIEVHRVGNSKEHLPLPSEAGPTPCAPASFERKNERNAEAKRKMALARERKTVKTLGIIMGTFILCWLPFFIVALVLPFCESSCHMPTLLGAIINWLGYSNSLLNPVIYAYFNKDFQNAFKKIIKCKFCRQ
Chain of Mitogen-activated protein kinase 10 (P53779 whole entry): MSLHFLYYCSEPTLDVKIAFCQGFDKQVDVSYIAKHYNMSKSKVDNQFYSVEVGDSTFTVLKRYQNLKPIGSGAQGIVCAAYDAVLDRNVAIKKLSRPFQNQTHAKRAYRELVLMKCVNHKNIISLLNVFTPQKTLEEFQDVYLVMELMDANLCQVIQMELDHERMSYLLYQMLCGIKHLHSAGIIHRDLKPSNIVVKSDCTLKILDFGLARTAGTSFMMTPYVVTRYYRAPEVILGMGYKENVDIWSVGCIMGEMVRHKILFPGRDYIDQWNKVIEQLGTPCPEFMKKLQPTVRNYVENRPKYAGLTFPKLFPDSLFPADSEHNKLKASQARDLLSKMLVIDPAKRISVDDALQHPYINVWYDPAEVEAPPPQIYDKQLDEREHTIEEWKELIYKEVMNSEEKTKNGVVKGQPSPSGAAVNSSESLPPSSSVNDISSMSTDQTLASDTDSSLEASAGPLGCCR

CCN(CC)c1nc(N2CCOCC2)c(C#N)c2c1CN(C)CC2
EC50 [1]: > 50 µM (not active)

CC(C)n1nc(C(=O)OCC(=O)N(C)C2CCS(=O)(=O)C2)c2ccccc2c1=O (stereo not given)
IC50 [2]: 35.5 µM (not active)

CCSc1nc2ccccc2n1C(=O)/C=C/c1ccc(OC)c(OC)c1
CC50 (Vero [3]): 20.2 µM (active)
AC50 [4]: 5.58 µM (active)
EC50 [5]: 5.41 µM (inconclusive)
EC50 (BJ [6]): > 75 µM (inconclusive)
EC50 [7]: 2.65 µM (active)
IC50 [8]: 8.54 µM (active)
AC50 [9]: 5.86 µM (active)
EC50 (BJ [10]): > 150 µM (not active)
AC50 [11]: 4.61 µM (active)
EC50 (BJ [12]): 13.6 µM (active)
AC50 [13]: 0.962 µM (active)
AC50 [14]: 7.89 µM (active)
IC50 (Vero [15]): 10.4 µM (active)
AC50 [16]: 47 µM (active)
AC50 [17]: 12.9 µM (active)
AC50 [18]: 5.61 µM (active)

CC(CC(=O)Nc1ccc(F)c([N+](=O)[O-])c1)c1ccccc1 (stereo not given)
IC50 [19]: > 83.3 µM (inactive)
IC50 [20]: > 109 µM (inactive)

N#Cc1c(NC(=O)CSc2nnnn2C2CCCCC2)sc2c1CCCC2
IC50 [21]: > 50 µM (not active)

CCn1c(COc2ccc(Cl)c(C)c2)nnc1SCC(=O)N1CCCC1
IC50 [22]: > 100 µM (not active)

COc1ccc(NC2=Nc3ccccc3N3C2=Nc2c(c(C)nn2-c2ccc(C)cc2)C3c2cccnc2)cc1 (stereo not given)
EC50 [23]: > 38 µM (not active)
EC50 [24]: > 195 µM (not active)
EC50 [25]: 53.8 µM (active)
IC50 (Ephrin type-A receptor 4): 10.4 µM (active)
CC50 [26]: > 50 µM (active)

CC(C)C[C@H](NC(=O)[C@H](Cc1ccccc1)NC(=O)c1cnccn1)B(O)O
IC50 [27]: 0.0078 µM (active)
IC50 [28]: 0.00636 µM (active)
IC50 [29]: 0.00365 µM (active)
IC50 [30]: 0.0032 µM (active)
IC50 [31]: 0.00315 µM (active)
IC50 [32]: 0.00513 µM (active)
IC50 [33]: 0.00241 µM (active)

COc1ccc(-c2ccc([C@H]3[C@@H](C#N)N(C(=O)NC(C)C)[C@@H]3CO)cc2)cc1
AC50 [34]: 14.7 µM (active)
AC50 [35]: 0.472 µM (active)
AC50 [36]: 78 µM (active)
AC50 [37]: 0.511 µM (active)
AC50 [38]: > 39 µM (inactive)
AC50 [39]: 0.528 µM (active)
AC50 [40]: 0.604 µM (active)
AC50 [41]: 0.725 µM (active)

CCN(CC)CCOc1ccccc1C(=O)CCc1ccccc1 [ETAFENONE]
IC50 [27]: > 10 µM (inactive)
IC50 [42]: > 10 µM (inactive)
IC50 (cells): > 33.3 µM (inactive)
IC50 [43]: 3.89 µM (active)

COc1ccc(NS(=O)(=O)c2cccc(C(=O)NNC(=O)c3cccn3C)c2)cc1
IC50 [44]: > 50 µM (inactive)
IC50 [45]: 23.5 µM (active)
IC50 [46]: 5.42 µM (active)
IC50 (Protein Tat): > 100 µM (active)
